Measurements as given in ChEMBL document CHEMBL1201862, “PubChem BioAssay data set” (2004).
Each block holds one compound with its values, some of them ahead of it. The source made the active and inactive calls.

Assays:
Format in all cases: functional
Oxytocin receptor = Oxytocin receptor (Homo sapiens, UniProt P30559); assay: Fluorescence-based cell-based high throughput dose response assay for potentiators of Oxytocin Receptor (OXTR). [Related pubchem assays: 434985 (Confirmation screen (OXTR potentiators in triplicate)), 2481 (Summary (OXTR potentiators)), 2445 (Primary screen (OXTR potentiators in singlicate))]
[1] = target: Neuropeptide Y receptor type 2 (Homo sapiens, UniProt P49146); assay: IC50 for human NPY-Y2 blockade – cell-based, counter-screen for NPY-Y1 antagonist project, dose response (AID 1278)
[2] = target: Neuropeptide Y receptor type 1 (Homo sapiens, UniProt P25929); assay: IC50 of human NPY-Y1 blockers – cell-based, dose response (AID 1277)
[3] = viability of uninfected HEp-2 cells – cell-based, HTS, cytotoxicity control for RSV inhibitor project, dose response (AID 2410); conditions: human respiratory syncytial virus
[4] = Counterscreen for IDE inhibitors: Luminescence-based cell-based high throughput dose response assay to identify compounds that are cytotoxic to HEK cells. [Related pubchem assays: 434962 (Primary screen (IDE inhibitors in singlicate)), 449730 (Counterscreen (Cytotoxicity in triplicate)), 435028 (Confirmation (IDE inhibitors in triplicate)) …; conditions: HEK293
Insulin-degrading enzyme = target: T1, Insulin-degrading enzyme (Homo sapiens, UniProt P14735); assay: Dose Response: Fluorescence polarization-based cell-based high throughput dose response assay for inhibitors of insulin-degrading enzyme (IDE). [Related pubchem assays: 434962 (Primary screen (IDE inhibitors in singlicate)), 449730 (Counterscreen (Cytotoxicity in triplicate)), 435028 (Confirmation (IDE inhibitors in triplicate)), 434984 (Summary …
T1 sequence (P14735 whole entry): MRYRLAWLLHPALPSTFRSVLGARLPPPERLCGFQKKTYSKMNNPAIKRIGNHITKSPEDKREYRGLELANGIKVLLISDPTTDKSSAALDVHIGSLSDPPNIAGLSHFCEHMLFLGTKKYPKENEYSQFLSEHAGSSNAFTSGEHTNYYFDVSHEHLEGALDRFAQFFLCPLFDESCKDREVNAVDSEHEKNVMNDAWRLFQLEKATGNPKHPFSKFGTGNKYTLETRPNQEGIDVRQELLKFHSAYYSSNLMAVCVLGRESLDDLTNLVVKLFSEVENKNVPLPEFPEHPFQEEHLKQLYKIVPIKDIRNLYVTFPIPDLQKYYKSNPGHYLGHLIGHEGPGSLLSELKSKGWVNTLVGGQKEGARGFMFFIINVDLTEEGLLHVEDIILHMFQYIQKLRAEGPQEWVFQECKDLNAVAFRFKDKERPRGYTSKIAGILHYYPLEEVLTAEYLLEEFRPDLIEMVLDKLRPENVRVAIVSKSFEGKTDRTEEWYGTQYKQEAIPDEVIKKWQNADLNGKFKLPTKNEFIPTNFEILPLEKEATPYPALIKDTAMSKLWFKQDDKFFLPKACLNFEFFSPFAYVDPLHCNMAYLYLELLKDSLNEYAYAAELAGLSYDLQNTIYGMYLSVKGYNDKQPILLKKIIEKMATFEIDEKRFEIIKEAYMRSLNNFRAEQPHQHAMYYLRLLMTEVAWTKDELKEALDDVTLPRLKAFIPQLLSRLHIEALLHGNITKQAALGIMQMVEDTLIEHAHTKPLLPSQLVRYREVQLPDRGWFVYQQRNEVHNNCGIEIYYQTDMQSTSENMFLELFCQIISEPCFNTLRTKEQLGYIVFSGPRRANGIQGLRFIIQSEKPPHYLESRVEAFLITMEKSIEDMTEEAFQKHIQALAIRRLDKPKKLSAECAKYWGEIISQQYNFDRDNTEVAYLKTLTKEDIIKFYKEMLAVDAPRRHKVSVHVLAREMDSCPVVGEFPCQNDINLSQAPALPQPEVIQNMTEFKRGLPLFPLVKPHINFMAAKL

Sequence of Neuropeptide Y receptor type 2 (P49146 whole entry): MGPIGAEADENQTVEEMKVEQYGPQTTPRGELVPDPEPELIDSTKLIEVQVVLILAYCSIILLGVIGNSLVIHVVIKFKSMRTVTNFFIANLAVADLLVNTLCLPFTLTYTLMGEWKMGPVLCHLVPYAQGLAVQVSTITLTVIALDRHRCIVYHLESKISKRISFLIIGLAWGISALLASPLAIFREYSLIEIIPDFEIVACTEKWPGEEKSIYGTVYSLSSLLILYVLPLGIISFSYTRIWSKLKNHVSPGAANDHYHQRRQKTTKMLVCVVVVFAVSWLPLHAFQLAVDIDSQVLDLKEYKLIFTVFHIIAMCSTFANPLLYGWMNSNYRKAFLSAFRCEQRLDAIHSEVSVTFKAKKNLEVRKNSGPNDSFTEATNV
Sequence of Neuropeptide Y receptor type 1 (P25929 whole entry): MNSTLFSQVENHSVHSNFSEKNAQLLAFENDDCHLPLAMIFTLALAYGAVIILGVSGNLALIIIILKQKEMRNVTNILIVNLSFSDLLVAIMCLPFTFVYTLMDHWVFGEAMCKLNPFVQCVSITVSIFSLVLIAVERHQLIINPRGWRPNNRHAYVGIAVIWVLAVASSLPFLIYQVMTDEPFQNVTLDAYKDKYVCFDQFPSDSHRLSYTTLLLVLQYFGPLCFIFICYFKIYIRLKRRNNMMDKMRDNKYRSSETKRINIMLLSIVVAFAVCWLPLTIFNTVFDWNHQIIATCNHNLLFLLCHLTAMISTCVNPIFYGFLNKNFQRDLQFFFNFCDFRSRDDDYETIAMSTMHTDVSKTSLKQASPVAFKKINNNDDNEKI
Sequence of Oxytocin receptor (P30559 whole entry): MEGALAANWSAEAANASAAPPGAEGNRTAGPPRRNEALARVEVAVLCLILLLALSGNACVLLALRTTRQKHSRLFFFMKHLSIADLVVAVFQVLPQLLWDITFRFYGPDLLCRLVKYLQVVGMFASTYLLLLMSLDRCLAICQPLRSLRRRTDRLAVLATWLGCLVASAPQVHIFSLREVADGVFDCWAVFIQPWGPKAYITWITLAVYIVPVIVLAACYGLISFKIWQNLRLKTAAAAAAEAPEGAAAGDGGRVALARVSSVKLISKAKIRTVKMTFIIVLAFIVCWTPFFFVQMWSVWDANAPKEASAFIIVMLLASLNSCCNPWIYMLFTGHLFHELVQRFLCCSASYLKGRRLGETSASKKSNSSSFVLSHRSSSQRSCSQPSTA

EC50 (Oxytocin receptor): > 29.9 µM (not active)
SMILES: CCOc1ccccc1NC(=O)c1cccc(NC(=O)CC(c2ccccc2)c2ccccc2)c1

IC50 [1]: > 35 µM (not active)
IC50 [2]: > 35 µM (not active)
SMILES: COc1ccc(N(C)S(=O)(=O)c2cccc(C(=O)NC3CCC(C)CC3)c2)cc1 (stereo unspecified)

SMILES: Cc1ccc(NC2=NC(=O)/C(=C/c3cn(C)c4ccccc34)S2)cc1C
CC50 [3]: 6.5 µM (active)
IC50 [4]: 16.5 µM (not active)
IC50 (Insulin-degrading enzyme): 18.4 µM (not active)
